Data from patent US6455550B1, “N-alkanoylphenylalanine derivatives” (Hoffmann-La Roche Inc., priority 1997, dated 2002).

Biological target: T1, VLA-4 (α4β1 integrin) binding to immobilized VCAM-1 (Homo sapiens, UniProt P05556+P13612)
T1 construct: followed by 10 μl of Ramos cell-derived VLA-4; endogenous in cells; host or cells: Ramos cells (VLA-4 preparation derived from the cells)
Experiment: VLA-4/VCAM-1 Screening Assay (solid-phase, dual antibody ELISA)
Settings: for IC50: Ramos cell-derived VLA-4, recombinant human VCAM-1 coated plates, 2 hr at 37° C., read-out: IC50
Experimental: VLA-4 antagonist activity, defined as ability to compete for binding to immobilized VCAM-1 was quantitated using a solid-phase, dual antibody ELISA. VLA-4 (α4β1 integrin) bound to VCAM-1 was detected by a complex of anti-integrin β1 antibody: HRP-conjugated anti-mouse IgG: chromogenic substrate (K-Blue). Initially, this entailed coating 96 well plates (Nunc Maxisorp) with recombinant human VCAM-1 (0.4 μg in 100 μl PBS), sealing each plate and then allowing the plates to stand at 4° C for Å18 hr. […] On the day of assay, all plates were washed twice with VCAM Assay Buffer (200 μl/well of 50 mM Tris-HCl, 100 mM NaCl, 1 mM MnCl2, 0.05% Tween 20; pH 7.4). Test compounds were dissolved in 100% DMSO and then diluted 1:20 in VCAM Assay Buffer supplemented with 1 mg/mL BSA (i.e., final DMSO=5%). […] 100 μl per well of each dilution was added to the VCAM-coated plates, followed by 10 μl of Ramos cell-derived VLA-4. These plates were sequentially mixed on a platform shaker for 1 min, incubated for 2 hr at 37° C. and then washed four times with 200 μl/well VCAM Assay Buffer. 100 μl of mouse anti-human integrin β1 antibody was added to each well (0.6 μg/mL in VCAM Assay Buffer+1 mg/mL BSA) and allowed to incubate for 1 hr at 37° C. At the conclusion of this incubation period, all plates were washed four times with VCAM Assay Buffer (200 μl/well). A corresponding second antibody, HRP-conjugated goat anti-mouse IgG (100 μl per well @1:800 dilution in VCAM Assay Buffer+1 mg/mL BSA), was then added to each well, followed by a 1 hr incubation at room temperature and concluded by three washes (200 μl/well) with VCAM Assay Buffer. Color development was initiated by addition of 100 μl K-Blue per well (15 min incubation, room temp) and terminated by addition of 100 μl Red Stop Buffer per well. […] Results were calculated as % inhibition of total binding (i.e., VLA-4+VCAM-1 in the absence of test compound).

T1 sequence (P13612 34-1032): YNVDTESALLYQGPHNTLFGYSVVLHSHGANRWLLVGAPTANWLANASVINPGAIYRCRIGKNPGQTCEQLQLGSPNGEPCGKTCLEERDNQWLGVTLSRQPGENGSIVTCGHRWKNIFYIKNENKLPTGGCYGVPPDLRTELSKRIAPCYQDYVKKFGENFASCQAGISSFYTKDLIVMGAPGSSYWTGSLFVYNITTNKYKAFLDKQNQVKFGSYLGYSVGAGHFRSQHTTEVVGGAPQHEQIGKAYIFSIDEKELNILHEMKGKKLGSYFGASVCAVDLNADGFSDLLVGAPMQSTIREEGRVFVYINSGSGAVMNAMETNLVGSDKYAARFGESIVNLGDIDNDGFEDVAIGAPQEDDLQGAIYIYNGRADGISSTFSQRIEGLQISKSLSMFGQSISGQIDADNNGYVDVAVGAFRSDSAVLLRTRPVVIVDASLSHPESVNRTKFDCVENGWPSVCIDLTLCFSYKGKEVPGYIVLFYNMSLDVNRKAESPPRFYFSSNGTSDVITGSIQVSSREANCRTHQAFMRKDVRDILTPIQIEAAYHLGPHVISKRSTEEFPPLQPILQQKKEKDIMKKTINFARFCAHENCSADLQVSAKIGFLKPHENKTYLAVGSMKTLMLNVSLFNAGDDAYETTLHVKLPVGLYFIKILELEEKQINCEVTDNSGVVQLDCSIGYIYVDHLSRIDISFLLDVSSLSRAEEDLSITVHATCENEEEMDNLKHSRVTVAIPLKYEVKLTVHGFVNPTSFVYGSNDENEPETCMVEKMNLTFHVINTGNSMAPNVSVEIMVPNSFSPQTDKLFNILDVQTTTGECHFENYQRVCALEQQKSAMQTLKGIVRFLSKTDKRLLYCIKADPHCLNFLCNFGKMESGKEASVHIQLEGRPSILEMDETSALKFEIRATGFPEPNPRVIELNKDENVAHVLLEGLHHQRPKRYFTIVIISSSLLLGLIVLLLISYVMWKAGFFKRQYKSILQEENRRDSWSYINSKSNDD
T1 sequence (P05556 21-798): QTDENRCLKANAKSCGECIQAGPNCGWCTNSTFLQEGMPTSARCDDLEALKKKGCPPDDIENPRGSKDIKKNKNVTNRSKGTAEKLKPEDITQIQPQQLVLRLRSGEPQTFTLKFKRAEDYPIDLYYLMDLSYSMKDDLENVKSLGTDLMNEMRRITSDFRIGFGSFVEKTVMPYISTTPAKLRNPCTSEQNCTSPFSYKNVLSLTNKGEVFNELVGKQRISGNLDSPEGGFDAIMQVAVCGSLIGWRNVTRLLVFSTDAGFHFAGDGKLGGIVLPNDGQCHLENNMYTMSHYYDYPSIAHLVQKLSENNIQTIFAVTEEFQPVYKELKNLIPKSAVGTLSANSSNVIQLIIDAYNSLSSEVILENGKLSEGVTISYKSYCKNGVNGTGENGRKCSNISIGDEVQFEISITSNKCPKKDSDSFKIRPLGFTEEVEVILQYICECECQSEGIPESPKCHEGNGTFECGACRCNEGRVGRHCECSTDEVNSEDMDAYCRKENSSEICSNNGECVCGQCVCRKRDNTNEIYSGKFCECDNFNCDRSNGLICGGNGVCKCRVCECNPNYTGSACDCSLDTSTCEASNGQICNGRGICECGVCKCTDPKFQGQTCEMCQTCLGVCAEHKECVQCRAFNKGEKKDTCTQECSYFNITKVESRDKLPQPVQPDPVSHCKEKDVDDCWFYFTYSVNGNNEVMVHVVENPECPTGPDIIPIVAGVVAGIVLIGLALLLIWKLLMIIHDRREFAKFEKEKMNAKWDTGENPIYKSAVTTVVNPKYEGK

IC50 [nM]	inhibition at 0.01 µM [%]	inhibition at 0.1 µM [%]	SMILES
63	–	–	COCCC1(C(=O)NC(Cc2ccc(N3C(=O)C(CC(C)C)N(C(C)=O)C3c3ccc(OC)cc3)cc2)C(=O)O)CCCC1 (single isomer, unassigned) [Example 131]
10.4	–	–	COc1ccc(C2(C(=O)N[C@@H](Cc3ccc(NC(=O)c4ccc(F)cc4C(F)(F)F)cc3)C(=O)O)CCCCC2)cc1 [Example 104]
13.5	–	–	COc1ccc(C2(C(=O)NC(Cc3ccc(NC(=O)C(Cc4ccc(O)cc4)NC(C)=O)cc3)C(=O)O)CCCCC2)cc1 (centres unmarked) [Example 106]
40	–	–	CCCCC(C)(CC)C(=O)N[C@@H](Cc1ccc(NC(=O)[C@H](Cc2ccc(O)cc2)NC(C)=O)cc1)C(=O)O (some centres unmarked) [Example 91]
1.2	77	95	COc1ccc(C2(C(=O)N[C@@H](Cc3ccc(NC(=O)c4ccnc5ccccc45)cc3)C(=O)O)CCCCC2)cc1 [Example 79]
2.5	51	86	CC1CCC(C)(C(=O)N[C@@H](Cc2ccc(NC(=O)c3ccnc4ccccc34)cc2)C(=O)O)C1(C)C (some centres unmarked) [Example 71]
8.2	49	86	CCCC(C)(CC)C(=O)N[C@@H](Cc1ccc(NC(=O)c2ccnc3ccccc23)cc1)C(=O)O (some centres unmarked) [Example 68]
0.73	–	–	COCCC1(C(=O)NC(Cc2ccc(N3C(=O)C(CC(C)C)N(C(C)=O)C3c3ccc(OC)cc3)cc2)C(=O)O)CCCC1 (single isomer, unassigned) [Example 136]
1.05	–	–	COCC1(C(=O)NC(Cc2ccc(NC(=O)c3c(Cl)cccc3Cl)cc2)C(=O)O)CCCC1 (centres unmarked) [Example 60]
1.1	–	–	O=C(Nc1ccc(C[C@H](NC(=O)C23CC4CC(CC(C4)C2)C3)C(=O)O)cc1)c1c(Cl)cccc1Cl [Example 83]
2.9	–	–	CCCCC(C)(CC)C(=O)N[C@@H](Cc1ccc(NC(=O)N2CCC(C#N)(c3ccccc3)CC2)cc1)C(=O)O (some centres unmarked) [Example 120]
1.04	–	–	CCCCC(C)(CC)C(=O)N[C@@H](Cc1ccc(NC(=O)c2cc([N+](=O)[O-])ccc2C)cc1)C(=O)O (some centres unmarked) [Example 90]
60	–	–	COCCC1(C(=O)NC(Cc2ccc(N3C(=O)C(CC(C)C)N(C(C)=O)C3c3ccc(Cl)cc3)cc2)C(=O)O)CCCC1 (single isomer, unassigned) [Example 133]
5.8	49	87	CCC(C(=O)N[C@@H](Cc1ccc(NC(=O)c2ccnc3ccccc23)cc1)C(=O)O)c1ccccc1 (some centres unmarked) [Example 69]
1.9	–	–	COc1ccc(C2(C(=O)NC(Cc3ccc(NC(=O)CCN4CCCCC4)cc3)C(=O)O)CCCC2)cc1 (centres unmarked) [Example 93]
17.4	–	–	COc1ccc(CC2(C(=O)N[C@@H](Cc3ccc(NC(=O)c4ccc(F)cc4C(F)(F)F)cc3)C(=O)O)CCCC2)cc1 [Example 96]
2.8	–	–	COCCC1(C(=O)NC(Cc2ccc(N3C(=O)C(CC(C)C)N(C(C)=O)C3c3ccc(Cl)cc3)cc2)C(=O)O)CCCC1 (single isomer, unassigned) [Example 132]
1.3	–	–	Cn1nnnc1-c1cccc(CC2(C(=O)N[C@@H](Cc3ccc(NC(=O)c4c(Cl)cccc4Cl)cc3)C(=O)O)CCCCC2)c1 [Example 50]
7	49	86	CC1(C(=O)N[C@@H](Cc2ccc(NC(=O)c3ccnc4ccccc34)cc2)C(=O)O)CCCCC1 [Example 70]
4.7	–	–	CC1(C)C2CCC1(C(=O)NC(Cc1ccc(NC(=O)c3c(Cl)cccc3Cl)cc1)C(=O)O)C(=O)C2 (centres unmarked) [Example 49]
0.43	–	–	Cc1ccc([N+](=O)[O-])cc1C(=O)Nc1ccc(C[C@H](NC(=O)C23CC4CC(CC(C4)C2)C3)C(=O)O)cc1 [Example 85]

SMILES	IC50 [nM]	inhibition at 0.01 µM [%]	inhibition at 0.1 µM [%]
COc1ccc(CC2(C(=O)N[C@@H](Cc3ccc(NC(=O)c4cc([N+](=O)[O-])ccc4C)cc3)C(=O)O)CCCC2)cc1 [Example 42, N-[[1-[(4-Methoxyphenyl)methyl]cyclopentyl]carbonyl]-4-[[(2-methyl-5-nitrophenyl)carbonyl]amino]-L-phenylalanine]	0.61	–	–
